target: T1, reTAPON1-LIKE (Trichoderma atroviride, UniProt A0A4D6GQM1); format: biochemical; conditions: 25 °C
T1 construct: 30-aa signal peptide removed (438-residue ORF, 1317 bp), N-terminal GST tag kept (pGEX-4T-1), E. coli Origami B (DE3), about 71 kDa fusion

SMILES	Km [µM]
CCOP(=O)(OCC)Oc1nc(Cl)c(Cl)cc1Cl [Chlorpyrifos-oxon]	320 ± 50
COP(=O)(OC)OC=C(Cl)Cl [Dichlorvos, 2,2-dichlorovinyl dimethyl phosphate]	230 ± 20
CCOC(=O)CC(SP(=O)(OC)OC)C(=O)OCC (centres unmarked) [Malaoxon]	720 ± 10
COC(=O)C=C(C)OP(=O)(OC)OC [Mevinphos]	440 ± 40
CNC(=O)CSP(=O)(OC)OC [Omethoate]	790 ± 120

Source: article doi:10.1101/416081v1 (biorxiv, 2018)
